Experiments:
PK40 (ERK2) = biological target: T1, PK40 (ERK2) (Homo sapiens, UniProt P28482); assay: PK40(ERK2) kinase inhibition assay; type: biochemical; conditions: 0.25 mM ATP, myelin basic protein substrate
T1 construct: made in house; host or cells: E. coli BL21 pLysS (printed 'B121pLysS'), pET-14b vector
Method: Preparation of ERK2: Recombinant human ERK2 with a N-terminal histidine (his) tag was prepared as follows: An ERK2 cDNA clone was amplified from a human frontal cortex library by PCR with primers matching the published human sequence [Gonzales F. A. et al, FEBS Lett. 304, 170-178 (1992)]. The histidine tag was introduced by site-directed mutagenesis. The cDNA was cloned into a pET-14b (Novagen) vector and transfected into the E. coli lysogen strain B121pLysS. Single colony transformants were grown in LB medium containing […] chloramphenicol to maintain pLysS and […] to an O.D.600 OF 0.6. The culture was then induced with 0.4 mM IPTG for 4 hours. The expressed ERK2 protein was then analyzed on a 10% SDS PAGE by both coomassie blue staining and anti-ERK Western blotting. […]
Enzyme, substrate and inhibitor were preincubated for 5-10 min at 4° C. in assay buffers containing a final concentration of 2% DMSO before initiating the reaction with 0.25 mM γ^2P-ATP. […] The filtermats were washed twice for several hours with TCA/PPA until all background radioactivity was removed. Precipitable counts were quantitated directly on the filtermat with a microbeta scintillation counter system (Wallac-Pharmacia). Inhibitor data were subjected to curve fitting and IC50 values were calculated from these curves using the GraphIt program.

PKC = tested on: T2, PKC; assay: PKC inhibition assay; type: biochemical, rat; conditions: footnote a) on the CII value: partial inhibition only
T2 construct: PKC was purified from rat brain using the method of Woodgett J. R. and Hunter T., J. Biol. Chem 262, 4836-4843 (1987)
Method: Preparation of PKC: PKC was purified from rat brain using the method of Woodgett J. R. and Hunter T., J. Biol. Chem 262, 4836-4843 (1987).
PKC was assayed in 50μ 25 mM HEPES, pH 7.0, 10 mM MgCl2, 2 mM CaCl2, 1 mM EDTA, 1 mM DTT, 0.25 mM ATP, 0.2 mg/mL phosphatidylserine, using 20 ng PKC and 0.08 mg/mL histone III-S as a substrate.
Enzyme, substrate and inhibitor were preincubated for 5-10 min at 4° C. in assay buffers containing a final concentration of 2% DMSO before initiating the reaction with 0.25 mM γ^2P-ATP. Samples were incubated for 30 min at 37° C. and reactions were terminated with 10% trichloracetic acid/2% sodium pyrophosphate (TCA/PPA), followed by filtration over a glass fiber filtermat (type A) with a cell harvester (Tomtec). The filtermats were washed twice for several hours with TCA/PPA until all background radioactivity was removed. Precipitable counts were quantitated directly on the filtermat with a microbeta scintillation counter system (Wallac-Pharmacia). Inhibitor data were subjected to curve fitting and IC50 values were calculated from these curves using the GraphIt program.

T1 sequence (P28482 whole entry): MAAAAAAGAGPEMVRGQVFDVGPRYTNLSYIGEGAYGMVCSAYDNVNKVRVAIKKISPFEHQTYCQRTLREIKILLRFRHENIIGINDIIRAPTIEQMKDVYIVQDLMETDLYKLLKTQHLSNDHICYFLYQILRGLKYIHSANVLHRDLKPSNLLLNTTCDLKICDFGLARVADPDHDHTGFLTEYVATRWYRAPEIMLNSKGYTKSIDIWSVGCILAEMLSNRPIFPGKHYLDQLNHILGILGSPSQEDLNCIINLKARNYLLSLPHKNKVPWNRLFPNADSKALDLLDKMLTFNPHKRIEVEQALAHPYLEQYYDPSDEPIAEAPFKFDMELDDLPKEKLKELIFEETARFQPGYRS

Structure (SMILES) | IC50 (PK40 (ERK2)) | IC50 (PKC)
COC(=O)[C@@]1(O)C[C@H]2C[C@@H]1n1c3ccccc3c3c4c(c5c6ccccc6n2c5c31)C(=O)NC4=O (relative stereo) [CIII, 9,12-Methano-1H-diindolo[1,2,3-fg:3′,2′,1′-kl]pyrrolo[3,4-I][1,6] benzodiazocine-10-carboxylic acid, 2,3,9,10,11,12-hexahydro-10-hydroxy-1,3-dioxomethyl ester, (9α,10β,12α)] | > 30000 nM | > 100000 nM
CNC(=O)[C@]1(O)CC2CC1n1c3ccccc3c3c4c(c5c6ccccc6n2c5c31)C(=O)NC4=O (stereo partly drawn) [CII, 9,12-Methano-1H-diindolo[1,2,3-fg:3′,2′,1′-kl]pyrrolo[3,4-I][1,6] benzodiazocine-10-carboxamide, 2,3,9,10,11,12-hexahydro-10-hydroxy-N-methyl-1,3-dioxo-(9α,10β,12α)] | 44 nM | 650 nM

Reference: US6541468B1, “Indolocarbazole derivatives useful for the treatment of neurodegenerative diseases and cancer” (Bayer Corporation, priority 1998, dated 2003)
